Experimental data as given in patent US5877185A, “Synergistic compositions useful as anti-tumor agents” (priority 1995, dated 1999).

Columns and labels:
[1] = tested on: HIV-1 (LAV strain); test: in vitro anti-retroviral testing (HIV-1 inactivation) in human peripheral lymphocytes (PBL); format: cell-based
Experimental: Both 6-NOBP and NOBA were tested on viral growth of HIV-1 (LAV strain) in phytohemagglutinin-stimulated human peripheral lymphocytes (PBL). An HIV-1 stock having an infectivity titer of 100,000 TCID50 was incubated for 30 min. at 22° C. with either of the drugs. Control HIV samples, containing no drugs, were incubated in the same manner. […] At the end of this incubation cultures were assayed for productive infection by an immunoassay for HIV-1 antigens and by reverse transcriptase as described in McDougal et al., J. Immunol. Methods 76:171-183 (1985). Virus titers were expressed as percentile values (percent infected cultures) compared to the controls, containing HIV dilutions which were not preincubated with the C-nitroso drugs. In a separate series of experiments, HIV-1 dilutions and C-nitroso drugs (see upper abscissa) were not preincubated but were added simultaneously to lymphocytes in exactly the same concentrations as described previously (i.e., following preincubation) and viral growth monitored 9 days later.

[2] = tested on: MT-2 cells; test: effectiveness on human T-lymphoblastoid leukemia cells, MT-2; format: cell-based
Experimental: IV. Effectiveness of 4-(halogen)-3-nitro-benzamide compounds as tested with human T-lymphoblastoid leukemia cell lines in culture.
Cells (MT-2 cells, or, in case of 3-fluoro-4-nitro-benzamide, CEM-4 cells) were seeded at a density of 0.1×10^5 /ml; the drugs were added at the time of seeding. The cultures were incubated at 37° C. in a 5% CO2 atmosphere and the cells numbers were monitored by hemacytometer counting in 24 hr intervals.

SMILES | TCID50 (calculated infectious titer after treatment) ([1]; 100 μM) | decrease of relative amount of infectious virus available to cause 50% infected cultures ([1]; 30 min. at 22° C., FIG. 7A) | log reduction at 100 µM ([1]; Human immunodeficiency virus 1, Lymphocyte, 0.5 h, 100 μM, of TCID50, read-out: Decrease) | inhibition at 100 µM ([1]; Human immunodeficiency virus 1, Lymphocyte, 100 μM) | IC50 ([2]; Homo sapiens, MT2, concentration decreasing cell viability to 50% of control, 48 h incubation, read-out: I50) | LD100 ([2]; zero viability after 48 hours of incubation)
NC(=O)c1cccc(N=O)c1 [NOBA, 3-nitrosobenzamide] | 11 TCID50 | 4 log units | 4.2 | > 100% |  | 
NC(=O)c1ccc(I)c([N+](=O)[O-])c1 [INO2 BA, 4-iodo-3-nitrobenzamide] |  |  |  |  | 70 µM | 190
